In ChEMBL document CHEMBL1201862, “PubChem BioAssay data set” (2004):
Calls of active or inactive are those of the source.

Tests used:
Estrogen receptor = molecular target: T1, Estrogen receptor (Homo sapiens, UniProt P03372);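 further: potency for inhibiting coactivator peptide recruitment to the receptor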
T1 sequence (P03372 whole entry): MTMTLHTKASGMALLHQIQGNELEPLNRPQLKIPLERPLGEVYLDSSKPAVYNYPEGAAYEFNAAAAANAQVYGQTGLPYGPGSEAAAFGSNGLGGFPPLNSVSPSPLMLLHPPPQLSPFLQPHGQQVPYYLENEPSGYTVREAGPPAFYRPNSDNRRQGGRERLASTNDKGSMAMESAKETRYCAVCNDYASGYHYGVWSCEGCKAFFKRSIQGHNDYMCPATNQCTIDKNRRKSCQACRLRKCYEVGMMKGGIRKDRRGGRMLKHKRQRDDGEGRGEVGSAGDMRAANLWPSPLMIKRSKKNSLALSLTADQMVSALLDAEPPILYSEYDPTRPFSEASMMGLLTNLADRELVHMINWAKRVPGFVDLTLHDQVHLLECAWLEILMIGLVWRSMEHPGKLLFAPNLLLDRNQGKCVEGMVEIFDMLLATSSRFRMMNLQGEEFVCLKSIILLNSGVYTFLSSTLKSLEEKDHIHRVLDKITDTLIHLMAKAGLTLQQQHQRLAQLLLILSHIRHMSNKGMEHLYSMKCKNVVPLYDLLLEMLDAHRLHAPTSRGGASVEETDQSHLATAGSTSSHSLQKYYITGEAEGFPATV

[1] = CCR5-tropic HIV-1 fusion blockers – cell-based, CCR5-tropic Env, dose response (AID 2279); assay type: functional
Genome polyprotein = Genome polyprotein (dengue virus type 2, UniProt P29990); experiment: flavivirus cap methylation enzyme inhibition – biochemical, confirmation dose response, primary screen (AID 588689); assay type: functional
Genome polyprotein, sequence (P29990 2492-3391 limits assumed): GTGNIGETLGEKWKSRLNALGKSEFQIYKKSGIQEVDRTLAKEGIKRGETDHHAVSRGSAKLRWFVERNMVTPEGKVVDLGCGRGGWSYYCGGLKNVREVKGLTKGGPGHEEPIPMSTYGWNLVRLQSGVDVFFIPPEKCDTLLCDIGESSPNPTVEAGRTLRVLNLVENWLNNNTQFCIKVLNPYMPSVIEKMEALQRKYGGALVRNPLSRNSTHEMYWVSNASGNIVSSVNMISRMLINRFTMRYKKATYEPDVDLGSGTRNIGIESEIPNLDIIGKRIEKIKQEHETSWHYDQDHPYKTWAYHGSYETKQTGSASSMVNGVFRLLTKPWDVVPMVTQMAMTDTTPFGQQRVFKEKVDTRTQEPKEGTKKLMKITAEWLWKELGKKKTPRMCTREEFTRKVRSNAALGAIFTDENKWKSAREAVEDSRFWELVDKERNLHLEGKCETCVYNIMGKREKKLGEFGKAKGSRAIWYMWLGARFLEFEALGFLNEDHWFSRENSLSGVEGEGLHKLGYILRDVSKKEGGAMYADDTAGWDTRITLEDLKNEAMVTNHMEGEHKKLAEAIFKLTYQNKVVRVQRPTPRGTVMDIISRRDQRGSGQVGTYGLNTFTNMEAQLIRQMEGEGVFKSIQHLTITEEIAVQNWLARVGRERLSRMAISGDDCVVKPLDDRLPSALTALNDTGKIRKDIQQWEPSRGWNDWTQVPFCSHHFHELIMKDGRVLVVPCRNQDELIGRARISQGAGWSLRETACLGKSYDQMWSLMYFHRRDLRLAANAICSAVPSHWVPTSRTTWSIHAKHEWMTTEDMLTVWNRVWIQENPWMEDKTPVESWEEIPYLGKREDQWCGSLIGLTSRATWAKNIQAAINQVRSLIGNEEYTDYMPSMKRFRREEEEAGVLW

IC50 (Estrogen receptor)	SMILES	IC50 [1]	IC50 (Genome polyprotein)
> 50 µM (not active)	CCC(C)n1nc(O)cc1N (stereo not drawn)		
	O=C(CCN1C(=O)/C(=C\C=C\c2ccccc2)SC1=S)Nc1ccccc1C(=O)O	> 50 µM (active)	64.3 µM (active)
